Measured values from patent US20060111341A1, “Use of galanthamine and the derivatives thereof in the production of medicaments” (priority 2003, published 2006).

Tests used:
Acetylcholinesterase = Acetylcholinesterase (Homo sapiens, UniProt P22303); assay: biochemical
Butyrylcholinesterase = Butyrylcholinesterase (Homo sapiens, UniProt P06276); assay: biochemical
Butyrylcholinesterase, sequence (P06276 29-602): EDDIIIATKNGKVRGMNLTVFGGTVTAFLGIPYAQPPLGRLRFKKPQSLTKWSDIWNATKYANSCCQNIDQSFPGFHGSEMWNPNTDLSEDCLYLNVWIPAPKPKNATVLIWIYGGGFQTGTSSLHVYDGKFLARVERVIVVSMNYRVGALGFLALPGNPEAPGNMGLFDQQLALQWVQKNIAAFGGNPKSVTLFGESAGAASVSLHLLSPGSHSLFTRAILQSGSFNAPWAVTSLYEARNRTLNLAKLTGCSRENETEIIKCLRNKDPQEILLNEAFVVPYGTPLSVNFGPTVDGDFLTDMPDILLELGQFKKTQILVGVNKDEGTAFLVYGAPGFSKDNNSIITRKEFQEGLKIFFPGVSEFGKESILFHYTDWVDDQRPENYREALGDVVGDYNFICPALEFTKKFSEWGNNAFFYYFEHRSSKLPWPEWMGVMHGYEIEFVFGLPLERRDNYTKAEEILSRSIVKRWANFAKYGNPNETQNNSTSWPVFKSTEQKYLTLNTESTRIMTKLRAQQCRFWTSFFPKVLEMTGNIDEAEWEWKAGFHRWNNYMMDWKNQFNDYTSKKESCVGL

Acetylcholinesterase, sequence (P22303 32-614): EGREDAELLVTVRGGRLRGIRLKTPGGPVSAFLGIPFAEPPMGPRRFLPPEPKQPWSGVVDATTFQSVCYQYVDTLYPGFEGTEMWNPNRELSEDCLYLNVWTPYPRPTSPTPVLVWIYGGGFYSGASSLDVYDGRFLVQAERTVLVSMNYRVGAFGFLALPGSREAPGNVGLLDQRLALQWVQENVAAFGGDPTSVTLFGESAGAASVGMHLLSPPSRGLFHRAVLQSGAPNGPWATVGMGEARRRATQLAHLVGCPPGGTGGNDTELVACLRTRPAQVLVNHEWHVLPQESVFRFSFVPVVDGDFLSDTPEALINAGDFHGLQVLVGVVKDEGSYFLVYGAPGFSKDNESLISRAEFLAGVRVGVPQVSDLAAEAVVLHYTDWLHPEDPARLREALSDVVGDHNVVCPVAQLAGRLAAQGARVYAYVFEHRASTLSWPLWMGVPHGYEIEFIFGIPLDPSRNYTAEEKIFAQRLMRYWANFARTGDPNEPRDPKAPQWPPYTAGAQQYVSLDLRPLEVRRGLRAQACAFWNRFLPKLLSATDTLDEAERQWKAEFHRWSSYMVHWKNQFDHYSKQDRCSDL

| Compound | IC50 (Acetylcholinesterase) | IC50 (Butyrylcholinesterase) |
| --- | --- | --- |
| COc1ccc2c3c1OC1C[C@@H](O)C=CC31CCN(/C(=N/C#N)SC)C2 (mixture of isomers) [Nr 79] | 25 µM | 0.54 µM |
| COc1ccc2c3c1O[C@H]1C[C@@H](O)C=C[C@@]31CCN(CCCCCN1C(=O)c3ccccc3S1(=O)=O)C2 [Nr 163] | 0.022 µM | – |
| COc1cc(Br)c2c3c1OC1C[C@@H](O)C=CC31CCN(C(=O)NC(C)C)C2 (mixture of isomers) [Nr 70] | > 100 µM | 25 µM |
| COc1ccc2c3c1O[C@H]1C[C@@H](O)C=C[C@@]31CCN(C(N)=O)C2 [Nr 113] | 44 µM | > 100 µM |
| COc1ccc2c3c1OC1C[C@@H](O)C=CC31CCN(CCCO)C2 (mixture of isomers) [Nr 81] | 7.2 µM | 21 µM |
| CCN(CC)c1nc(N(CC)CC)nc(N2CCC34C=C[C@H](O)CC3Oc3c(OC)ccc(c34)C2)n1 (mixture of isomers) [Nr 95] | 40 µM | > 100 µM |
| COc1ccc2c3c1O[C@@H]1C[C@H](OC(=O)N[C@H](C)c4ccccc4)C=C[C@]31CCN(C)C2 [Nr 180] | 85 µM | – |
| COc1ccc2c3c1O[C@H]1C[C@@H](OC(=O)N[C@H](C)c4ccccc4)C=C[C@@]31CCN(C)C2 [Nr 2] | – | 70 µM |
| COc1ccc2c3c1O[C@@H]1C[C@H](O)C=C[C@]31CC[N+](C)(CCN1CCOCC1)C2 (stereo partly shown) [Nr 12] | 57 µM | 13 µM |
| C=CCN1CCC23C=C[C@H](O)CC2Oc2c(OC)ccc(c23)C1 (mixture of isomers) [Nr 40] | 3.3 µM | 3.1 µM |
| COc1ccc2c3c1O[C@H]1C[C@@H](O)C=C[C@@]31CC[N+](C)(CCCN1CCCCC1)C2 (stereo partly shown) [Nr 4] | 6 µM | – |
| COc1ccc2c3c1OC1C[C@@H](O)C=CC31CCN(C(=O)NC(C)(C)C)C2 (mixture of isomers) [Nr 82] | 4.8 µM | > 100 µM |
| C=C(C)C[N+]1(C)CCC23C=C[C@H](O)CC2Oc2c(OC)cc(C)c(c23)C1 (mixture of isomers) [Nr 67] | 70 µM | 2.4 µM |
| COc1ccc2c3c1OC1C[C@@H](O)C=CC31CCN(CCCN)C2 (mixture of isomers) [Nr 90] | 3.4 µM | 11 µM |
| COc1cc(Br)c2c3c1O[C@H]1C[C@@H](O)C=C[C@@]31CCNC2 [Nr 29] | 3 µM | – |
| COc1ccc2c3c1OC1C[C@@H](O)C=CC31CCN(c1nc(OCCCN(C)C)nc(OCCCN(C)C)n1)C2 (mixture of isomers) [Nr 94] | 70 µM | 40 µM |
| COc1ccc2c3c1O[C@H]1C[C@@H](O)C=C[C@@]31CCN(C(=O)OC(C)(C)C)C2 [Nr 139] | 23 µM | > 100 µM |
| COc1cc(Br)c2c3c1OC1C[C@@H](O)C=CC31CCN(Cc1ccccc1)C2 (mixture of isomers) [Nr 38] | > 100 µM | 0.24 µM |
| CCCN1CC[C@@]23C=C[C@H](O)C[C@@H]2Oc2c(OC)ccc(c23)C1 [Nr 155] | 0.3 µM | 1.5 µM |
| COc1ccc2c3c1O[C@H]1C[C@@H](O)C=C[C@@]31CCN(C)C2C (stereo partly shown) [Nr 135] | 4.2 µM | 25 µM |
| COc1ccc2c3c1O[C@H]1C[C@H](N)C=C[C@@]31CCN(C)C2 [Nr 84] | 40 µM | 6 µM |
| COc1ccc2c3c1OC1C[C@@H](O)C=CC31CCN(CCN1CCOCC1)C2 (mixture of isomers) [Nr 36] | – | 7 µM |
| COc1ccc2c3c1O[C@H]1C[C@@H](O)C=C[C@@]31CCN(c1cccs1)C2 [Nr 124] | 4 µM | 0.54 µM |
| COc1cc(Br)c2c3c1O[C@@H]1C[C@H](O)C=C[C@]31CCN(C(=O)CCN1CCCC1)C2 [Nr 271] | > 100 µM | 66 µM |

| Compound | IC50 (Acetylcholinesterase) | IC50 (Butyrylcholinesterase) |
| --- | --- | --- |
| COc1cc(C)c2c3c1OC1C[C@H](O)C=CC31CC[N+](C)(Cc1ccc(C(F)(F)F)cc1)C2 (mixture of isomers) [Nr 105] | 60 µM | 5.4 µM |
| COc1ccc2c3c1OC1C[C@@H](O)C=CC31CCN(Cc1ccccc1)C2 (mixture of isomers) [Nr 41] | 0.7 µM | 0.65 µM |
| COc1ccc2c3c1OC1C[C@@H](O)C=CC31CCN(C=C(C#N)C#N)C2 (mixture of isomers) [Nr 80] | 28.5 µM | > 100 µM |
| CNC(=S)N1CCC23C=C[C@H](O)CC2Oc2c(OC)cc(Br)c(c23)C1 (mixture of isomers) [Nr 71] | 31 µM | 20 µM |
| CNC(=S)N1CCC23C=C[C@H](O)CC2Oc2c(OC)ccc(c23)C1 (mixture of isomers) [Nr 73] | 23 µM | 30 µM |
| COc1cc(Br)c2c3c1OC1C[C@@H](O)C=CC31CCN(CCN1CCOCC1)C2 (mixture of isomers) [Nr 25] | 3 µM | – |
| CCOC(=O)CCN1CCC23C=C[C@H](O)CC2Oc2c(OC)ccc(c23)C1 (mixture of isomers) [Nr 78] | – | 17 µM |
| COc1ccc2c3c1O[C@H]1C[C@@H](O)C=C[C@@]31CCN(CC1CC1)C2 [Nr 131] | 0.7 µM | 1.2 µM |
| COc1ccc2c3c1OC1C[C@@H](O)C=CC31CCN(CCC(=O)NC(C)C)C2 (mixture of isomers) [Nr 109] | 54.5 µM | 36 µM |
| COc1cc(Br)c2c3c1O[C@@H]1C[C@H](O)C=C[C@]31CCN(CCCN1CCN(C)CC1)C2 [Nr 273] | – | 31 µM |
| COc1ccc2c3c1O[C@H]1C[C@@H](O)C=C[C@@]31CC[N+](C)(CCCCl)C2 (stereo partly shown) [Nr 59] | 0.35 µM | – |
| COc1ccc2c3c1O[C@H]1C[C@@H](OC(=O)N[C@@H](C)c4ccccc4)C=C[C@@]31CCN(C)C2 [Nr 3] | – | 75 µM |
| COc1ccc2c3c1O[C@H]1C[C@@H](O)C=C[C@@]31CCN(C)[C@@H]2C#N [Nr 132] | 1.2 µM | – |
| COc1ccc2c3c1O[C@H]1C[C@@H](O)C=C[C@@]31CCN(C(=O)OCC1c3ccccc3-c3ccccc31)C2 [Nr 134] | 40 µM | – |
| COc1ccc2c3c1O[C@H]1C[C@@H](O)C=C[C@@]31CCN(CCCN1CCCCC1)C2 [Nr 162] | 0.36 µM | – |
| CCNC(=O)N1CCC23C=C[C@H](O)CC2Oc2c(OC)ccc(c23)C1 (mixture of isomers) [Nr 87] | – | > 100 µM |
| COc1cc(Br)c2c3c1OC1CC(=O)C=CC31CCN(C)C2 (racemic) [Nr 11] | 50 µM | – |
| CCOC(=O)CN1CCC23C=C[C@H](O)CC2Oc2c(OC)cc(Br)c(c23)C1 (mixture of isomers) [Nr 26] | 20 µM | – |
| COc1ccc2c3c1O[C@H]1C[C@@H](O)C=C[C@@]31CC[N+](C)(CCN1CCCC1)C2 (stereo partly shown) [Nr 7] | 2 µM | – |
| COc1ccc2c3c1O[C@H]1C[C@@H](O)C=C[C@]31CC[N+](C)(CCN1CCOCC1)C2 (stereo partly shown) [Nr 199] | 5 µM | – |
| COc1cc(Br)c2c3c1OC1C[C@@H](O)C=CC31CCN(C(=O)CCN1CCCCC1)C2 (mixture of isomers) [Nr 43] | 0.2 µM | – |
| CCCCNC(=S)O[C@@H]1C=C[C@]23CCN(C)Cc4ccc(OC)c(c42)O[C@@H]3C1 [Nr 182] | 85 µM | – |
| COc1cc2c(cc1OC)C(=O)C(CCCCCN1CC[C@@]34C=C[C@H](O)C[C@@H]3Oc3c(OC)ccc(c34)C1)C2 (stereo partly shown) [Nr 166] | 0.023 µM | – |
| COc1ccc2c3c1OC1C[C@@H](O)C=CC31CCN(C(=O)NC1CCCCC1)C2 (mixture of isomers) [Nr 83] | – | > 100 µM |

| Compound | IC50 (Acetylcholinesterase) | IC50 (Butyrylcholinesterase) |
| --- | --- | --- |
| COc1ccc2c3c1O[C@H]1C[C@H](OC(=O)CNC(=O)OC(C)(C)C)C=C[C@@]31CCN(C)C2 [Nr 6] | 45 µM | – |
| COc1ccc2c3c1O[C@H]1C[C@@H](O)C=C[C@@]31CCN(CCCCN1C(=O)c3ccccc3S1(=O)=O)C2 [Nr 165] | 0.027 µM | – |
| COc1cc(C)c2c3c1O[C@H]1C[C@@H](O)C=C[C@@]31CCN(C)C2C (stereo partly shown) [Nr 146] | 83 µM | – |
| COc1ccc2c3c1O[C@H]1C[C@@H](O)C=C[C@@]31CC[N+](C)(CC(N)=O)C2 (stereo partly shown) [Nr 51] | 3.1 µM | – |
| COc1ccc2c3c1OC1C[C@@H](O)C=CC31CCN(CCC#N)C2 (mixture of isomers) [Nr 77] | – | > 100 µM |
| COc1ccc2c3c1OC1C/C(=N/N)C=CC31CCN(C)C2 (racemic) [Nr 28] | 40 µM | – |
| COc1ccc2c3c1O[C@@H]1C[C@H](O)C=C[C@]31CCN(C(=O)NC(C)(C)C)C2 [Nr 125] | 93 µM | – |
| COc1ccc2c3c1O[C@@H]1C[C@H](OC(=S)Nc4ccccc4)C=C[C@]31CCN(C)C2 [Nr 181] | 35 µM | – |
| COc1cc(Br)c2c(c1O)C13C=CC(=O)CC1N(CC3)C2 (racemic) [Nr 13] | 5 µM | – |
| COc1ccc2c(c1)CC(CCCCN1CC[C@@]34C=C[C@H](O)C[C@@H]3Oc3c(OC)ccc(c34)C1)C2=O (stereo partly shown) [Nr 168] | 0.024 µM | – |
| COc1cc(Br)c2c(c1O)C13CCC(O)CC1N(CC3)C2 (racemic) [Nr 205] | 50 µM | – |
| COc1cc(Br)c2c3c1OC1C[C@@H](O)C=CC31CCNC2 (mixture of isomers) [Nr 93] | 5 µM | – |
| COc1ccc2c3c1O[C@H]1C[C@@H](O)C=C[C@@]31CCN(CCCN(C)C)C2 (racemic) [Nr 74] | – | 10 µM |
| COc1ccc2c3c1O[C@@H]1C[C@H](O)C=C[C@]31CCN(CCCN(C)C)C2 [Nr 151] | – | 67 µM |
| COc1cc(Br)c2c3c1O[C@H]1C[C@@H](O)C=C[C@@]31CCN(C)C2 [Nr 30] | 4 µM | – |
| COc1ccc2c3c1O[C@H]1C[C@@H](O)C=C[C@@]31CCN(CCCCCCN1C(=O)c3ccccc3S1(=O)=O)C2 [Nr 164] | 0.043 µM | – |
| COc1ccc2c3c1O[C@H]1C[C@@H](O)C=C[C@@]31CCN(CC#N)C2 [Nr 136] | 15 µM | – |
| COc1ccc2c3c1OC1C[C@@H](O)C=CC31CCN(C(=O)CCl)C2 (mixture of isomers) [Nr 98] | – | 20 µM |
| COc1ccc2c3c1O[C@H]1C[C@@H](O)C=C[C@@]31CC[N+](C)(CCN1CCCCC1)C2 (stereo partly shown) [Nr 52] | 4 µM | – |
| COc1ccc2c3c1O[C@H]1C[C@@H](O)C=C[C@@]31CCN(CCC(=O)OC(C)(C)C)C2 [Nr 116] | – | 4 µM |
| C#CCN1CC[C@@]23C=C[C@H](O)C[C@@H]2Oc2c(OC)ccc(c23)C1 [Nr 156] | 32 µM | – |
| COc1cc(Br)c2c3c1O[C@@H]1C[C@H](O)C=C[C@]31CCN(C(=O)CN1CCN(C)CC1)C2 [Nr 272] | 89 µM | – |
| COc1ccc2c3c1O[C@H]1C[C@@H](O)C=C[C@@]31CC[N+](C)(CCN(C)C)C2 (stereo partly shown) [Nr 8] | 8 µM | – |
| CCOC(=O)CN1CCC23C=C[C@H](O)CC2Oc2c(OC)ccc(c23)C1 (mixture of isomers) [Nr 100] | – | 90 µM |
